In the METLIN SMRT retention time set (Domingo-Almenara et al. 2019):

Assay: gradient 5% acetonitrile 3 min, to 50% in 2 min, to 85% in 15 min, held 3 min, 100 µL/min
Conditions: column: Zorbax Extend-C18 2.1 x 50 mm; eluents: water / acetonitrile, 0.1% formic acid
Procedure, shortened: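 Data were gathered over 3 months by HPLC coupled to a quadrupole time-of-flight mass spectrometer, operated in positive and negative ionization mode. Mixtures of ~100 pure standards ran on a Zorbax Extend-C18 column (2.1 × 50 mm, 1.8 μm) at 100 μL/min, with water and acetonitrile each containing 0.1% formic acid and dead and dwell volumes of 40 μL and 900 μL. Retention time was read from adduct peaks picked by computer and checked manually.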

Row | RP-LC retention time | Structure (SMILES)
1 | 708 s | Cc1ccc(-c2ccc(N3CCCC(C(=O)NCCCOC(C)C)C3)nn2)cc1C (stereo unspecified)
2 | 599 s | CC(C)(C)NC(=O)N1CCC(CNC(=O)C2CCN(S(C)(=O)=O)CC2)CC1
3 | 983 s | COc1cccc(-c2noc(C3CCCN3C(=O)Nc3ccc(C)cc3)n2)c1 (stereo unspecified)
4 | 779 s | CC(C)NC(=O)c1nnc(-c2ccc(S(=O)(=O)N3CCCC3)cc2)o1
5 | 767 s | O=C(Nc1nnc(-c2ccccc2Cl)o1)c1cccc([N+](=O)[O-])c1
6 | 913 s | Cc1cccc(NC(=O)N(C)CCc2noc(COc3ccccc3)n2)c1C
7 | 911 s | Cn1c(=O)c(N2CCN(C(=O)c3ccc(Br)cc3)CC2)nc2cccnc21
8 | 566 s | CCNC(=O)Nc1ccc2c(c1)CN(Cc1scnc1C)CCO2
9 | 715 s | CCCNC(=O)C1CCN(c2ccc(SCC(=O)Nc3ccc(C)c(Cl)c3)nn2)CC1
10 | 842 s | CC(C)n1c(=O)oc2cc(-c3noc(CNC(=O)Cc4ccccc4)n3)ccc21
11 | 604 s | COc1cc(NC(=O)CN2CCc3[nH]c4c(C)ccc(F)c4c(=O)c3C2)cc(OC)c1
12 | 649 s | CCCNc1cc(N2CCCC(CCC(=O)N3CCC(COC)CC3)C2)ncn1 (stereo unspecified)
13 | 974 s | CCCCN(CCCC)C(=O)CN1C[C@H](c2ccc3c(c2)OCO3)[C@@H](C(=O)O)[C@@H]1c1ccc(OC)cc1
14 | 1000 s | CCN1C(SCC(=O)N(C)c2ccccc2)=NS(=O)(=O)c2ccccc21
15 | 831 s | O=C(Cn1cc(-c2nnco2)c2ccccc21)NCc1ccccc1Cl
16 | 669 s | CN1CCCn2nc(C3CCN(C(=O)Nc4ccc(F)cc4)CC3)cc2C1=O
17 | 969 s | O=c1c2sccc2n(Cc2nc(-c3ccccc3)no2)c(=O)n1-c1ccccc1F
18 | 821 s | CCOC(=O)c1c(NCCc2cccs2)c2ccc(Cl)cc2[nH]c1=O
19 | 707 s | c1ccc2c(c1)OCC(c1nc(-c3ccc(-n4ccnc4)nc3)no1)O2 (stereo unspecified)
20 | 828 s | O=C(NC1CC1)[C@@H]1C[C@H](Oc2ccccc2)CN1S(=O)(=O)c1cccc2nsnc12
21 | 590 s | O=C(c1ccccc1C(F)(F)F)N1CCN=C1SCc1cccnc1
22 | 900 s | CCNC(=O)N1CCCC(c2cccc(C(=O)NCc3cccc(C(F)(F)F)c3)c2)C1 (stereo unspecified)

Row | RP-LC retention time | Structure (SMILES)
23 | 784 s | CCc1noc(-c2cnc3nc(C)ccc3c2NCc2ccccc2C)n1
24 | 699 s | O=C(Cn1ncc2c3ccccc3n(Cc3ccccc3F)c2c1=O)N1CCN(c2ccccn2)CC1
25 | 989 s | Cc1cccc2c(=O)n(C3CCN(S(=O)(=O)c4ccc(F)c(F)c4)CC3)cnc12
26 | 596 s | COc1cc2c(cc1OC)C(C(=O)N1CCC(C(N)=O)CC1)C(c1cccs1)N(C)C2=O (stereo unspecified)
27 | 628 s | Cc1ccnc(N2CCC(C(=O)NC3CCCC3)CC2)n1
28 | 680 s | Cc1cccc(-c2nc3ccccn3c2NC(=O)NCCc2ccccc2)c1
29 | 806 s | CC1CCc2[nH]nc(C(=O)NC3CCCC3)c2C1 (stereo unspecified)
30 | 841 s | COC1CCC12CCN(C(=O)C1CCCC1)CC2 (stereo unspecified)
31 | 693 s | O=C(Cn1c(=O)c(CCC(=O)NC2CC2)nc2ccccc21)NCc1ccccc1
32 | 763 s | CN(CC1CCOCC1)C(=O)Nc1ccccc1Cl
33 | 687 s | CC(C)n1nnc2cc(C(=O)O)ccc21
34 | 634 s | O=S(=O)(c1cccc2cccnc12)N1CC(c2noc(C3CCCN3CC3CC3)n2)C1 (stereo unspecified)
35 | 618 s | Cc1cccc(CNC(=O)C2(C)Cn3cnc(C(=O)N4CCOCC4)c3C(=O)N2C2CC2)c1 (stereo unspecified)
36 | 559 s | CC1CCN(c2ccc(CNc3nc4ccncc4n(C)c3=O)cc2)CC1
37 | 595 s | CCN1CCN(c2cc(C)c3cc(NC(=O)CC4CCCC4)ccc3n2)CC1
38 | 1020 s | CCCS(=O)(=O)c1nc2ccc(NS(=O)(=O)c3ccc(F)c(Cl)c3)cc2s1
39 | 719 s | O=C(NCCn1c(=O)n(Cc2ccccc2)c2cccnc21)c1ccccn1
40 | 880 s | O=S(=O)(c1cccn2c(SCc3ccccc3Cl)nnc12)N1CCCC1
41 | 934 s | CCOc1cc(=O)n2c(c1C(=O)OCc1cccc(F)c1)CCCCC2
42 | 924 s | CCCCOc1ccc(CNC(=O)CN2CC=C(c3cnn(-c4ccc(C)c(C)c4)c3)CC2)cc1
43 | 788 s | COC(=O)c1ccsc1NC(=O)CCS(=O)(=O)c1ccccc1
44 | 882 s | CCc1ccc2c(c1)cc(S(=O)(=O)c1ccccc1)c(=O)n2CC(=O)NC(C)C

Row | RP-LC retention time | Structure (SMILES)
45 | 780 s | O=C(Cn1c(=O)cc(C(=O)N2CCCC2)c2ccccc21)Nc1cccc(Br)c1
46 | 941 s | CCOc1ccccc1NS(=O)(=O)c1ccc2c(c1)C(=O)N(C)c1ncccc1O2
47 | 611 s | Fc1ccc(-c2n[nH]c(C3CCN(C4CCCC4)CC3)n2)cc1
48 | 998 s | CC(C)(C)c1noc(-c2ccnc(-n3cnc(C(=O)N4CCCCCC4)c3)c2)n1
49 | 806 s | COc1cc(C)c(C)cc1S(=O)(=O)NCC1CCN(c2ncccn2)CC1
50 | 679 s | O=C(NCCCN1CCc2ccccc2C1)c1sc2ncccc2c1-n1cccc1
51 | 776 s | Cc1cc(C(=O)NCC(O)(c2ccccc2)C(F)(F)F)no1 (stereo unspecified)
52 | 1120 s | CCOC(=O)c1noc2nc(C)nc(Nc3cccc(F)c3)c12
53 | 717 s | O=C1CCc2cc(NC(=O)c3cccc(C(F)(F)F)c3)ccc2N1
54 | 687 s | CCCN(C)c1nccn2c(=O)n(CC(=O)Nc3cccc(C)c3)nc12
55 | 674 s | CNC(=O)CSc1nnc(N2CCN(C(=O)c3cc(-c4ccccc4)on3)CC2)s1
56 | 854 s | CCOC(=O)C1CCCN(C(=O)c2csc3nc(-c4ccc(F)cc4)cn23)C1 (stereo unspecified)
57 | 712 s | CC(C)c1nnc2ccc(NC(=O)Nc3ccccc3)cn12
58 | 644 s | CC(=O)Nc1ccc(NC(=O)C2CCN(S(=O)(=O)c3ccc4c(c3)CCCC(=O)N4)CC2)cc1
59 | 798 s | Cc1cccc(CNC(=O)C2(C)Cn3cnc(C(=O)NCc4ccc(F)cc4)c3C(=O)N2C2CC2)c1 (stereo unspecified)
60 | 615 s | O=C(c1cccc(N2CCNC(c3ccccc3)C2)n1)N1CCCCC1 (stereo unspecified)
61 | 697 s | Cc1cc(=O)n(CC(=O)Nc2ccc(C)c(C)c2)c(N2CCOCC2)n1
62 | 655 s | COc1ccc(OCC(=O)N2CCN(c3cc(=O)n(C)c(=O)n3C)CC2)cc1
63 | 804 s | Cc1cn(C)c(CC(=O)Nc2ccc(Cl)cc2)c1C(=O)O
64 | 841 s | Cc1ccc2c(c1)C(=O)NC1(CCN(C(=O)Cc3ccccc3Cl)CC1)N2C
65 | 932 s | COc1ccc2[nH]cc(CCNC(=O)c3sc4ncccc4c3-n3cccc3)c2c1
66 | 568 s | Cc1ccccc1Nc1nc(N)nc(CN2CCN(c3ccccn3)CC2)n1
